Experimental data as given in patent US20070191453A1, “USE OF BENZO-HETEROARYL SULFAMIDE DERIVATIVES FOR THE TREATMENT OF SUBSTANCE ABUSE AND ADDICTION” (priority 2006, published 2007).

Tested on: selectively-bred alcohol preferring rats
Assay: Alcohol Preferring Rats In Vivo Model (two-bottle choice)
Parameters: species or system rat
Details: for 6 hr Preference (alcohol preference) / 6 hr Ethanol (alcohol intake) / 24 hr Ethanol (alcohol intake) / 24 hr Preference (alcohol preference): mean ± SEM; for 6 hr Ethanol (alcohol intake): 6 h after treatment
Description: Adult male selectively-bred alcohol preferring rats (which are known in the art to be useful for the study of the effect of test compounds on voluntary alcohol intake) were grouped into three groups: vehicle and Compound #1 (50 and 100 mg/kg, p.o.). Rats were housed individually in wire mesh cages under a constant room temperature of 22±1° C. and 12:12 light-dark cycle (8:00-20:00, dark). The animals were fed Agway Prolab Rat/Mouse/Hamster 3000 formula and water ad libitum.
Alcohol intake was determined using the standard two-bottle choice method. Animals were first given free access to water in a graduated Richter tube for 2 days. Then they were given access to only a solution of 10% (v/v) ethanol for 3 consecutive days. During this period animals became accustomed to drinking from Richter tubes and to the taste and pharmacological effects of alcohol. Thereafter, they were given free access to both water and a solution of 10% alcohol for at least 4 consecutive weeks and throughout the study period. Rats had free access to food. Water and alcohol intake were recorded at 4, 6 and 24 hours after the treatment, whereas food intake was measured at 24 hour. Animals' body weight was measured every day.
After establishment of a stable baseline for alcohol, food, and water intake, rats were administered either vehicle or Compound #1 via oral gavage using a cross-over design with random assignment. To be able to compare the efficacy of these compounds on alcohol intake with an established FDA-approved drug, naltrexone, was included as a positive control. Same rats were given an oral dose of naltrexone (20 mg/kg). The interval between treatments was at least 3 days. Alcohol and water intake were recorded 4, 6 and 24 h after the drug administration and food intake was recorded at 24 hr. A total of 8-10 animals per group were used.
The results below are presented as means±SEM. Alcohol intake (g/kg) was calculated by multiplying the volume of alcohol consumed in ml by 10% and 0.7893 (ethanol density)/body weight in kg. Alcohol preference, expressed as percentage, was calculated as follows: (volume of alcohol consumed in ml/total fluid intake in ml)×100 (Rezvani and Grady, 1994; Rezvani et al., 1997). Statistical differences between drug-treated and control groups were determined by using ANOVA and Tukey Student's t test for multiple comparison.

Compound	6 hr Preference (alcohol preference) (50 mg/kg p.o.)	6 hr Ethanol (alcohol intake) (50 mg/kg p.o.)	24 hr Ethanol (alcohol intake) (50 mg/kg p.o.)	24 hr Preference (alcohol preference) (50 mg/kg p.o.)	6 hr Preference (alcohol preference) (100 mg/kg p.o.)	6 hr Ethanol (alcohol intake) (100 mg/kg p.o.)	24 hr Ethanol (alcohol intake) (100 mg/kg p.o.)	24 hr Preference (alcohol preference) (100 mg/kg p.o.)	duration of reduction in ethanol consumption compared with naltrexone (in words) (100 mg/kg vs naltrexone 20 mg/kg)	effect on ethanol consumption (in words) (at 6 h (50 and 100 mg/kg; p<0.05) and 24 h (100 mg/kg; p<0.05) post-dosing)	6 hr Preference (alcohol preference) (naltrexone 20 mg/kg oral)	6 hr Ethanol (alcohol intake) (naltrexone 20 mg/kg oral)	24 hr Ethanol (alcohol intake) (naltrexone 20 mg/kg oral)	24 hr Preference (alcohol preference) (naltrexone 20 mg/kg oral)
NS(=O)(=O)NCc1csc2ccccc12 [Compound #1, N-(benzo[b]thien-3-ylmethyl)-sulfamide]	71 ± 11%	1.06 ± 0.25 g/kg	4.48 ± 0.62 g/kg	74 ± 9%	67 ± 11%	0.79 ± 0.24 g/kg	4.08 ± 0.71 g/kg	79 ± 9%	longer lasting than naltrexone	decreased ethanol consumption	–	–	–	–
O=C1CC[C@@]2(O)[C@H]3Cc4ccc(O)c5c4[C@@]2(CCN3CC2CC2)[C@H]1O5 [Naltrexone, naltrexone, reference compound]	–	–	–	–	–	–	–	–	–	–	64 ± 12%	0.77 ± 0.24 g/kg	4.48 ± 0.57 g/kg	76 ± 9%
